Reference: patent US20110150980A1, “CGRP ANALOG” (VasoGenix Pharmaceuticals, Inc., priority 2009, published 2011)
Read-outs that look alike come from different tables or passages of the source. Each block holds one molecule with its values, some of them ahead of it. Bridges are numbered along the chain shown (N, C = ends). Where no end group is shown, it is not given here.

Assays:
[1] = tested on: sedated Non Human Primate; experiment: IV infusion in the sedated Non Human Primate: blood pressure and heart rate (Example 1); assay type: in vivo; settings: at the 28 ng dose
CRLR/RAMP1 receptor [2] = target: T1, CRLR/RAMP1 receptor (Homo sapiens, UniProt O60894+Q16602); experiment: CRE-luciferase assay in HEK293T cells transfected with CRLR and RAMP1; assay type: cell-based; settings: for activity and potency in binding to the CGRP receptor, CRE-Luciferase assay: compared to h-α-CGRP and h-β-CGRP as controls
T1 construct: All of the full-length cDNAs were subcloned into pcDNA3.1 expression vectors; expressed in transfected cells; host or cells: HEK293T, transient calcium phosphate transfection, pcDNA3.1 vectors
Description: The expression vectors for RAMP1, RAMP2, RAMP3, CRLR, CRE-Luc and SRE-Luc were constructed as previously described (McLatchie L. M., et al. (1998) Nature 393:333-339). Human CRLR, RAMP1, and RAMP2 full-length cDNAs were cloned by RT-PCR using RNA obtained from HEK293T cells and CRLR, RAMP1, and RAMP2-specific primers. Human RAMP3 full-length cDNAs were cloned by RT-PCR using RNA from human kidney and RAMP3 specific primers. All of the full-length cDNAs were subcloned into pcDNA3.1 expression vectors.
Human embryonic kidney 293T cells (HEK293T) were maintained in Dulbecco's modified Eagle's medium supplemented with 10% fetal calf serum, 2 mM glutamine, […], at 37° C. in a humidified atmosphere of 95% air and 5% CO2. Transient transfections were performed using calcium phosphate co-precipitation (Mellon P. L., et al. (1981) Cell 27:279-288). Cells in six-well plates or 100-mm Petri dishes were grown to 70% confluence and transfected with 0.1 μg of DNA for CRLR, 0.05 μg for RAMPs or 1 μg for CRE-Luc and SRE-Luc per cm^2. The total amount of DNA transfected in each condition was kept constant by adding empty pcDNA3.1 vector when needed. Twenty hours after transfection, the medium was replaced with fresh medium containing 5 mM sodium butyrate for 24 h and then replaced for an additional 24 h with fresh medium without sodium butyrate. All of the experiments were performed 72 h after transfection to allow correct glycosylation and cell surface targeting of CRLR and RAMPs.
After exposure to various concentrations of CGRP or the CGRP analogs, the cells were lysed and assayed for CRE- or SRE-luciferase activity using the luciferase assay system (Promega), and luminescence was measured using a 96-well luminometer.
The mechanism of action for CGRP at the CRLR/RAMP1 receptor is known to up-regulate cAMP through the gs pathway, and to a lesser extent [Ca^2+] through the gq pathway. […] It is the cAMP pathway that is the primary mechanism of action of CGRP for vasodilation, cardio/renoprotection and immunomodulation.

patients = settings: cited from earlier work
CRLR/RAMP1 receptor [3] = target: CRLR/RAMP1 receptor (human, UniProt Q16602 23-461; O60894 27-148); experiment: cell-based or functional assay
[4] = Anand et al.: short-term IV infusions (10 or 20 minutes) at 0.8, 3.2, or 16 ng/kg/min
[5] = Sekhar et al.: 8 ng/kg/min by IV infusion for 8 hours
[6] = Stephenson et al.: 600 ng/min, 2-8 hour infusions for two consecutive days

T1 sequence (Q16602 23-461): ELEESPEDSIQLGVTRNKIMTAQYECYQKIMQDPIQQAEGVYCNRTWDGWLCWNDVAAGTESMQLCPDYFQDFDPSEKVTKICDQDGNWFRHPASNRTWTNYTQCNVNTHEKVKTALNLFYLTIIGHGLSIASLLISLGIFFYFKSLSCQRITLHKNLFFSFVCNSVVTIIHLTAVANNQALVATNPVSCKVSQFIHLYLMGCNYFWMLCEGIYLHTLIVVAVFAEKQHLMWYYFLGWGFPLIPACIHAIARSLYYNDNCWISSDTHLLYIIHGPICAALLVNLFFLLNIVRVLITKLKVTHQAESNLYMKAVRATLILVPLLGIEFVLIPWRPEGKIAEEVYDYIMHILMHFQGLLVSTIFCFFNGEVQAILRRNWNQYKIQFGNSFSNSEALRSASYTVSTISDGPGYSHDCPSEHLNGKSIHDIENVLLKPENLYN
T1 sequence (O60894 27-148): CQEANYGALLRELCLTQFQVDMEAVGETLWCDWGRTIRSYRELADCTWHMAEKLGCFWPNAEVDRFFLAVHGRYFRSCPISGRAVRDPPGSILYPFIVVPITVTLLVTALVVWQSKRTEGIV
Chain of CRLR/RAMP1 receptor (human, UniProt Q16602 23-461; O60894 27-148) (Q16602 23-461, chain 1 of 2): as the sequence (Q16602 23-461) above
Chain of CRLR/RAMP1 receptor (human, UniProt Q16602 23-461; O60894 27-148) (O60894 27-148, chain 2 of 2): as the sequence (O60894 27-148) above

Molecule: Cyc-ACDTATCVTHRLAGLLSRSGGVVKSNFVPTNVGSKAF-NH2 (disulfide 2-7 (inferred)) [Peptide III]
Heart rate (HR) effect [1]: increased heart rate but less than CGRP
activity and potency in binding to the CGRP receptor, CRE-Luciferase assay (CRLR/RAMP1 receptor [2]): as equally active and potent as h-α-CGRP and h-β-CGRP

Molecule: CGRP
hemodynamic effects (patients; [4]): beneficial hemodynamic effects such as decreased systemic vascular resistance and increase in cardiac output
tachycardia (patients; [4]): no tachycardia observed
renal blood flow and glomerular filtration (patients; Sekhar et al.: 8 ng/kg/min by IV infusion for 8 hours, during treatment): increased
hemodynamic effects (patients; [5]): beneficial hemodynamic effects such as decreased pulmonary and systemic arterial pressure, decreased vascular resistance and increased cardiac output
time after stopping infusion within which hemodynamic effects were lost (patients; [5]): ≤ 30 min
side effects of pulsed therapy (patients; [6]): unfavorable side effects of tachycardia and neurohumoral response were also observed
tolerability and hemodynamic functions, pulsed therapy (patients; [6]): well tolerated and was observed to improve hemodynamic functions such as left ventricular function
tolerability of continuous infusion therapy (patients; Stephenson et al.: 600 ng/min, 48-hour continuous IV-infusion): infusion was discontinued after 28 hours in 3 out of the 6 patients due to nausea, diarrhea, and/or severe facial flushing

Molecule: ACDTATCVTHRLAGLLSRSGGVVKSNFVPTNVGSKAF-NH2 (disulfide 2-7 (inferred); also: acetate salt) [Peptide III, [Ser25] h-α-CGRP]
CRE-Luciferase assay: concentration at which receptors were saturated (CRLR/RAMP1 receptor [3]): 100 nM

The next lines start with results.

potency in CRE-Luciferase assay (CRLR/RAMP1 receptor [2]; at a concentration of 10^−10 molar): more potent
Molecule: Cyc-ACDTATCVTHRLADLLSRSGGVVKSNFVPTNVGSKAF-NH2 (disulfide 2-7 (inferred)) [Peptide IX]
Heart rate (HR) effect [1]: increased heart rate but less than CGRP
activity and potency in binding to the CGRP receptor, CRE-Luciferase assay (CRLR/RAMP1 receptor [2]): as equally active and potent as h-α-CGRP and h-β-CGRP

CRE-Luciferase activity at 10^-10 molar, fold over analogs III and V, h-α-CGRP and h-β-CGRP (CRLR/RAMP1 receptor [3]): 1.5 fold
CRE-Luciferase assay: concentration at which receptors were saturated (CRLR/RAMP1 receptor [3]): 100 nM
Molecule: ACDTATCVTHRLADLLSRSGGVVKSNFVPTNVGSKAF-NH2 (disulfide 2-7 (inferred); also: acetate salt) [Peptide IX, [Asp14, Ser25] h-α-CGRP]

CRE-Luciferase assay: concentration at which receptors were saturated (CRLR/RAMP1 receptor [3]): 100 nM
Molecule: ACNTATCVTHRLAGLLSRSGGVVKSNFVPTNVGSKAF-NH2 (disulfide 2-7 (inferred); also: acetate salt) [Peptide V, [Asn3, Ser25] h-α-CGRP]
